Source: patent US8809627B2, “Plant isoflavone and isoflavanone O-methyltransferase genes” (The Samuel Roberts Noble Foundation, Inc., priority 2006, dated 2014)

Columns and labels:
Format in all cases: biochemical, Medicago truncatula
MtIOMT4 = test: OMT assays with purified recombinant MtIOMT4 (relative activity; HPLC of products); conditions: for Relative activity, MtIOMT4: 50 μM S-adenosyl methionine, 100 μM acceptor substrate, most converted substrate = 100%
From the text: (§1) Cloning of MtIOMT5 (corresponding to TC 100926, TIGR MtGI v.8) was as described previously (Liu et al., 2005). To obtain a full-length cDNA for MtIOMT2, specific primers designed based upon the M. truncatula genomic sequence were used to amplify the MtIOMT2 coding sequence from M. truncatula root cDNA. The amplified product was cloned into the pGEM®-T easy vector (Promega, Madison Wis.) and sequenced to confirm its identity. MtIOMTs were cloned into the pET28a vector (EMD Biosciences, Inc., San Diego, Calif.) using PCR-based amplification with primers designed to introduce EcoRI and XhoI restriction sites; BamHI and XhoI sites were used for cloning MtIOMT6 due to the presence of an internal EcoRI site in this particular cDNA. Because the EST for MtIOMT8 was missing a start codon, the primer designed to clone MtIOMT8 into pET28a contained an additional 2-nucleotide insertion to generate an ATG start site. All MtIOMTs were expressed as translational fusions to an N-terminal His-tag. Expression of MtIOMTs in E. coli BL21(DE3) and purification by Ni^2+-NTA chromatography were as described (Zubieta et al., 2001). Proteins were dialyzed against 20 mM Tris pH 8.0, 100 mM NaCl, 10% (v/v) glycerol, and 14 mM β-mercaptoethanol. Protein concentration was determined by Bradford assay using BSA as a standard (Bradford, 1976).
(§2) Reactions (200 μl) were performed in 0.1 M potassium phosphate, pH 7.4, 10% (w/v) sucrose, 14 mM β-mercaptoethanol with 10 μM protein, 0.5 mM S-adenosyl-L-methionine, and 80 μM phenolic substrates. All substrates were purchased from Indofine (Hillsborough, N.J.) except 6,7-dihydroxy-4′-methoxyisoflavone, dihydrodaidzein, and vestitol, which were purchased from Apin (Oxfordshire, UK). […] OMT assays were incubated at 30° C. for 2 h and extracted with ethyl acetate. Ethyl acetate extracts were dried under N2 and the resultant material was resuspended in 50-100 μl of methanol. Samples were analyzed on an Agilent 1100 HPLC, equipped with a quaternary pump (model #G1311A), a degasser (model #G1322A), an autosampler (model #G1313A), and a diode array detector (model #G1315A). Samples of 20 μl were applied to an ODS2 reverse-phase column (5 μm particle size, 4.6×250 mm) and eluted in 1% (v/v) phosphoric acid with an increasing gradient of acetonitrile (0-5 min, 25%; 5-35 min, 25-50%; 35-39 min, 50-100%) at a flow rate of 1 ml/min. To resolve the 4′-O-methylated and 7-O-methylated products of genistein, samples were applied to a Phenomenex SYNERGI Polar-RP 80 Å column (4 μm particle size, 4.6×250 mm) and eluted in water with an increasing gradient of acetonitrile (0-5 min, 20%; 5-17 min, 20-38%; 17-33 min, 38%; 33-45 min, 38-56%; 45-46 min, 56-100%) at a flow rate of 1 ml/min. Chiral chromatography was performed as described (Liu et al., 2005).
For determination of specific activities, reactions (100 μl) were performed in 0.1 M potassium phosphate, pH 7.4, 10% (w/v) sucrose, 14 mM β-mercaptoethanol with 0.2-μg protein, 50 μM S-adenosyl-L-methionine (0.025 μCi ^14C-SAM per reaction), and 100 μM substrate. Reactions were incubated at 30° C. for 15-25 min and stopped by addition of 4 μl of 1N HCl. Products were extracted into 500 μl of ethyl acetate and 400 μl was used for liquid scintillation counting. […]

MtIOMT1 = test: OMT assays with purified recombinant MtIOMT1 (relative activity with 14C-SAM); conditions: for Relative activity, MtIOMT1: 50 μM S-adenosyl methionine, 100 μM acceptor substrate, most converted substrate = 100%
From the text: as §1, with “1976). […]” for “1976).”
(§3) For determination of specific activities, reactions (100 μl) were performed in 0.1 M potassium phosphate, pH 7.4, 10% (w/v) sucrose, 14 mM β-mercaptoethanol with 0.2-μg protein, 50 μM S-adenosyl-L-methionine (0.025 μCi ^14C-SAM per reaction), and 100 μM substrate. Reactions were incubated at 30° C. for 15-25 min and stopped by addition of 4 μl of 1N HCl. Products were extracted into 500 μl of ethyl acetate and 400 μl was used for liquid scintillation counting.

MtIOMT6 = test: OMT assays with purified recombinant MtIOMT6 (relative activity; HPLC/MS of products); conditions: 50 μM S-adenosyl methionine, 100 μM acceptor substrate; most converted substrate = 100%
From the text: as §1, §2, §3
An HP 1100 series II LC system (Hewlett-Packard, Palo Alto, Calif.) with a photodiode array detector was coupled to a Bruker Esquire ion-trap mass spectrometer (ITMS) equipped with an electrospray ionization source. A reverse phase, C18, 5 μm, 4.6×250 mm column (J. T. Baker, Phillipsburg, N.J.) was used for separations. The mobile phase consisted of 0.1% (v/v) acetic acid using linear gradients of 5-90% acetonitrile (v/v) in 70 min. The flow rate was 0.8 ml/min, and the temperature of the column was kept at 28° C. Both positive- and negative-ion mass spectra were acquired. […]

Row | SMILES | Relative activity, MtIOMT4 (MtIOMT4) | Relative activity, MtIOMT1 (MtIOMT1) | Relative activity, MtIOMT6 (MtIOMT6) | Activity of MtIOMT4 (in words) (MtIOMT4) | Fold reduction of activity compared with 6,7,4′-trihydroxyisoflavone (MtIOMT1; MtIOMT1, methylation of the 4′-hydroxyl group) | Fold by which relative initial activity with glycitein is higher than with this substrate (MtIOMT1; MtIOMT1, saturating concentration of glycitein)
1 | O=c1c(-c2ccc(O)cc2)coc2cc(O)c(O)cc12 [6,7,4′-trihydroxyisoflavone] | 0% | 43.9% | 0% |  |  | 
2 | O=C1C[C@@H](c2ccc(O)cc2)Oc2cc(O)cc(O)c21 [Naringenin] | 0% | 0% | 0% |  |  | 
3 | O=c1oc2cc(O)ccc2c2oc3cc(O)ccc3c12 [Coumestrol] | 100% | 0% | 0% | low level, trace activity |  | 
4 | COc1ccc(-c2coc3cc(O)c(O)cc3c2=O)cc1 [6,7-dihydroxy,4′-methoxyisoflavone] | 0% | ≦1% | 0% |  | more than 80 fold | 
5 | O=c1c(O)c(-c2cc(O)c(O)c(O)c2)oc2cc(O)cc(O)c12 [Myricetin] | 0% | 0% | 0% |  |  | 
6 | COc1cc2c(=O)c(-c3ccc(O)cc3)coc2cc1O [Glycitein] | 0% | 100% | 0% |  |  | 
7 | O=c1cc(-c2ccc(O)cc2)oc2cc(O)ccc12 [7,4′-dihydroxyflavone] | 0% | 0% | 0% |  |  | 
8 | COc1ccc(C2COc3cc(O)ccc3C2)c(O)c1 (stereo not shown) [Vestitol] | 43.8% | 0% | 66.2% | low level, trace activity |  | 
9 | O=C1c2ccc(O)cc2OCC1c1ccc(O)cc1 (stereo not shown) [Dihydrodaidzein] | 0% | 15.6% | 100% |  |  | 
10 | O=c1c(-c2ccc(O)c(O)c2)coc2cc(O)ccc12 [7,3′,4′-trihydroxyisoflavone] | 0% | 40.8% | 0% |  |  | 
11 | O=c1cc(-c2ccc(O)cc2)oc2cc(O)cc(O)c12 [Apigenin] | 0% | 0% | 0% |  |  | 
12 | O=c1c(-c2ccc(O)cc2)coc2cc(O)cc(O)c12 [Genistein] | 0% | 49.2% | 0% |  |  | 
13 | O=c1c(-c2ccc(O)cc2)coc2cc(O)ccc12 [Daidzein] | 0% | 20.6% | 0% |  |  | 5 fold
